1 molecule from patent US11759435B2, “Dihydrochalcone derivatives influencing inflammatory states” (SYMRISE AG, priority 2016, dated 2023) can be followed below.

The subject of the test is IL-8 release by HGF-1 cells. Description: Anti-inflammatory action in HGF-1 cells: IL-8 release after PG-LPS stimulation (Example TS1). The class given is cell-based. The settings on record: Homo sapiens, co-incubation with 10 μg/ml PG-LPS, 6 h, % IL-8 release vs PG-LPS control, read-out: IL-8 T/C [%]. The method, then:
Anti-inflammatory action in human gingival fibroblastic cells (HGF-1)
DMEM containing 10% FBS, 1% penicillin/streptomycin and 4% glutamine was used as the medium. For determination of the anti-inflammatory action the cells were incubated with 10 μg/ml PG-LPS for 6 hrs. […] In each case 4 samples with two technical replicates were measured. In addition to this control the cells were co-incubated with
(a) 10 μg/ml PG-LPS and also with
After incubation the cell culture medium was transferred into an Eppendorf reaction vessel and at 4° C. for 10 min subjected to centrifugation (1000×g) in order to separate the cell debris. The supernatant was stored at −80° C. until analysis.

As for `O=C(CCc1ccc(O)cc1)c1c(O)cc(O)cc1O` [Compound 4], the activity at 1 µM (HGF1, 1 μM test compound) is 106%. Also, for the setting “HGF1, 100 μM test compound”, the activity at 100 µM was found to be 50%.
